The values below come from PubChem BioAssay (NCI).

Where “and” joins values, the source holds several entries; their conditions need not be identical. Equal entries are not always repeated.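 The compound was tested at five concentrations on cells cultured in 96-well plates, with a 48-hour exposure period. GI50 = concentration required for 50% inhibition of growth. The concentration for full growth arrest is given as TGI.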

What all share (test): inhibition of tumour cell growth, NCI panel, 48 h
In assay [1] the test system is SF-539 CNS.
Assay [2] relates to BT-549 breast.
Assay [3] has as its system SW-620 colon.
For assay [4], the system named is NCI-H23 lung.
For assay [5], the system named is ACHN renal.
Assay [6] concerns EKVX NSCLC.
Assay [7] concerns RPMI-8226 leukemia.
In assay [8] the test system is KM12 colon.
Assay [9] relates to 786-0 renal.
In assay [10] the test system is OVCAR-3 ovarian.

Regarding `C/C(O)=C(/C=N/C(=S)Nc1ccc(S(N)(=O)=O)cc1)C(=O)Nc1ccccc1C`, the TGI in assay [1], in assay [2], in [3], in assay [4], in [5] and in assay [6] was more than 100 µM in each case. The TGI in assay [7] was 97.3 µM; in assay [8] it was more than 100 µM; in assay [9], more than 100 µM; in assay [10], more than 100 µM.

Take `Cc1cc(NCCCN(C)C)c2ccc3c(ccc4c(NCCCN(C)C)cc(C)nc43)c2n1`: the GI50 in assay [1] was 0.193 µM; in [2] it was 1.85 µM; in assay [3] it was 0.185 µM; in [4] it was 0.23 µM; in [5] it was 0.238 µM; in assay [6], 0.246 µM. In addition, the GI50 in [7] is 0.0489 µM; in [8], 0.205 µM; in [9] it was 0.202 µM; in [10], 0.191 µM. The TGI in [1] was 0.487 µM; in assay [2], 3.53 µM; in assay [3], 0.493 µM; in [4], 0.673 µM; in [5] it was 0.744 µM; in assay [6], 0.821 µM. Besides, the TGI in assay [7] came to 0.147 µM; in [8], 0.57 µM; in assay [9] it was 0.506 µM; in assay [10], 0.444 µM.

As for `O=C1NNC2(C(=O)N1)c1ccccc1-c1ccccc12`, the TGI in [1], in assay [2], in [3], in [4], in assay [5] and in assay [6] was more than 10 µM in each case. The TGI in assay [7], in assay [8] and in [9] was more than 10 µM in each case.

For `Cc1c(Cl)cccc1C(=O)Nc1nc2c(s1)CN(C(=O)c1ccc(C(F)(F)F)cc1)CC2`, the GI50 in assay [1] was 0.0923 µM; in assay [2], 0.331 µM; in assay [3], 0.0656 µM; in assay [4], 0.186 µM; in [5], 0.267 µM; in assay [6] it was 0.285 µM. Moreover, the GI50 is 0.198 µM in [7], 0.113 µM in assay [8], 0.184 µM in assay [9] and 0.0583 µM in [10]. In addition, the TGI is 0.387 µM in [1]; 22.9 µM in [2]; more than 50 µM in assay [3]; more than 50 µM in assay [4]; more than 40.9 µM in [5]; more than 50 µM in assay [6]. In addition, the TGI was more than 34.9 µM in assay [7], more than 50 µM in [8], more than 33.3 µM in [9] and 0.347 µM in assay [10].

For `O=C1C(Nc2ccc(Cl)cc2)=C(I)C(=O)c2ncccc21`, the GI50 was 1.63 µM in [1]; 2 µM in assay [2]; 0.378 µM in assay [3]; 1.25 µM in assay [4]; 0.376 µM in [5]; 1.71 µM in [6]. Further, the GI50 is 1.33 µM in [7], 1.68 µM in assay [8], 0.91 µM in assay [9] and 0.247 µM in [10]. For the same compound, the TGI was determined as 3 µM in [1]; 4.72 µM in assay [2]; 2 µM in assay [3]; 3.17 µM in [4]; 1.32 µM in [5]; 3.32 µM in assay [6]. The TGI amounted to 5 µM in assay [7], 11 µM in assay [8], 2.25 µM in [9] and 1.03 µM in assay [10].

Turning to `O=C1Nc2ccc(Br)cc2C1=Nc1cccnc1`, the TGI in assay [1] stood at 30 µM; in assay [2] it was 33.2 µM; in assay [3], 46.4 µM; in assay [4] it was 45.4 µM; in assay [5], 39.3 µM; in [6] it was 65.1 µM. Also, the TGI turned out to be 60.9 µM in assay [7], 99.3 µM in assay [8], 44.7 µM in assay [9] and 44.3 µM in [10].

In the case of `Cc1cccc(/C=N/NC(=S)N2CCCC2)n1`, the GI50 was 0.753 µM in [1]; 3.02 µM in assay [2]; 0.352 µM in assay [3]; 0.401 µM in assay [4]; 1.44 µM in assay [5]; 3.18 µM in [6]. Further, the GI50 was 0.426 µM and 0.322 µM in [7]; 0.88 µM and 0.322 µM in assay [8]; 2.45 µM in [9]; 0.28 µM in [10]. The TGI in assay [2] is more than 100 µM; in assay [3], more than 100 µM; in [4] it was 13.4 µM; in assay [7], more than 100 µM; in assay [8] it was more than 100 µM; in assay [9], 2.85 µM. Further, in assay [10], the TGI is 0.843 µM and 0.0848 µM.

`Cc1ccccc1OCC(O)CN1CCN(c2ccc(Cl)cc2)CC1` (stereo not drawn): the GI50 in [1] is 19.5 µM; in [2] it was 18.3 µM; in assay [3], 16.1 µM; in [4] it was 15.8 µM; in [5], 18.8 µM; in [6], 13.7 µM. For the same compound, the GI50 is 16.3 µM in assay [7], 17.8 µM in [8], 17.4 µM in assay [9] and 16.6 µM in assay [10]. Further, the TGI in [1] stood at 36.5 µM; in [2], 33.3 µM; in assay [3] it was 33.1 µM; in [4], 34.5 µM; in assay [5], 42.2 µM; in [6], 30.9 µM. The TGI in assay [7] is 40.8 µM; in assay [8], 36.9 µM; in assay [9] it was 32.6 µM; in [10] it was 31.7 µM.

Consider `COc1cc2c(cc1OC)[C@H](C)N1CCc3cc(OC)c(OC)cc3[C@@H]1C2`, for which the TGI in assay [1], in assay [2], in assay [3], in assay [4], in assay [5] and in [6] was more than 100 µM in each case. The TGI in [7], in assay [8], in assay [9] and in assay [10] was more than 100 µM throughout.

Turning to `O=C(Nc1cccc(-n2cc(-c3ccncc3)c(-c3ccc(Cl)c(O)c3)n2)c1)Nc1cc(C(F)(F)F)cc(C(F)(F)F)c1`, the GI50 in assay [1] is 0.777 µM; in [2], 1.05 µM; in assay [3], 1.18 µM; in [4], 0.998 µM; in assay [5], 0.669 µM; in assay [7], 0.434 µM. Besides, the GI50 is 0.511 µM in assay [8], 1.02 µM in [9] and 0.345 µM in assay [10]. The TGI in assay [1] worked out at 1.53 µM; in [2] it was 2.05 µM; in assay [3], 3.73 µM; in assay [4] it was 2.86 µM; in assay [5], 4.2 µM; in assay [7] it was 10.6 µM. The figures for the TGI in assay [8], in assay [9] and in [10] were 1.35 µM, 2.35 µM and 1.11 µM, respectively.

Take `Cc1cc([N+](=O)[O-])c(NS(=O)(=O)c2cccc(C(=O)O)c2)cc1-c1cccnc1`: the GI50 in assay [1], in assay [2], in assay [3], in assay [4], in [5] and in assay [6] was more than 100 µM each time. Besides, the GI50 in assay [7] is more than 100 µM; in assay [8], 35.1 µM; in assay [9], more than 100 µM; in assay [10], more than 100 µM. The TGI in [1], in assay [2], in [3], in assay [4], in assay [5] and in [6] was more than 100 µM each time. The TGI in assay [7], in [8], in [9] and in assay [10] was more than 100 µM each time.

For the compound `NCCCC[C@@H]1NC(=O)[C@H]2CCCN2C(=O)[C@H](Cc2ccccc2)CNC(=O)[C@H](Cc2ccccc2)NC1=O`, the GI50 in [1], in [2], in assay [3], in assay [4], in [5] and in assay [6] was more than 37.5 µM each time. Further, the GI50 in [7], in [8], in [9] and in assay [10] was more than 37.5 µM each time. For the same compound, the TGI in assay [1], in [2], in assay [3], in assay [4], in assay [5] and in assay [6] was more than 37.5 µM in each case. For the same compound, the TGI in [7], in assay [8], in assay [9] and in assay [10] was more than 37.5 µM in each case.

Consider `O=C1CCCCCCCCCCC1CN1CCCC1` (stereo not drawn), for which the TGI is 65.1 µM in assay [1]; more than 100 µM in assay [2]; more than 100 µM in assay [3]; more than 100 µM in assay [4]; more than 100 µM in assay [5]; more than 100 µM in assay [7]. In addition, the results for the TGI in assay [8], in assay [9] and in assay [10] were more than 100 µM, 44.7 µM and more than 100 µM, respectively.

For `CN(C)CCN1C(=O)c2c(c3c4ccccc4n4c3c3c2c2ccccc2n3C2CC(O)C(O)C4(C)O2)C1=O` (stereo not drawn), the GI50 in assay [2] was 5.32 µM; in assay [3], 0.407 µM; in assay [4], 1.81 µM; in assay [5], 0.816 µM; in assay [6], 2.24 µM; in assay [7] it was 1.58 µM. Also, the GI50 in [8] was 1.74 µM; in assay [9], 1.93 µM; in assay [10], 2.27 µM. In addition, the TGI in assay [2] was 13 µM; in assay [3], 7.7 µM; in [4], 9.75 µM; in assay [5], 3.37 µM; in assay [6], 13 µM; in [7] it was 7.82 µM. Moreover, the values for the TGI in [8], in assay [9] and in assay [10] were 10.2 µM, 8.37 µM and 11.1 µM, respectively.

For `CSC1=C(N)C(=O)c2[nH]cc(CO)c2C1=N`, the GI50 in [1] is 0.171 µM; in assay [2], 0.171 µM; in assay [3], 0.198 µM; in assay [4] it was 0.109 µM; in assay [6], 0.26 µM; in assay [7], 0.293 µM. For the same compound, the GI50 in assay [8] is 0.418 µM; in assay [9] it was 1.44 µM; in assay [10], 0.134 µM. For the same compound, the TGI was determined as 0.309 µM in assay [1]; 0.313 µM in [2]; 0.422 µM in assay [3]; 0.344 µM in assay [4]; 1.22 µM in [6]; 1.2 µM in assay [7]. In addition, the figures for the TGI in [8], in assay [9] and in assay [10] were 2.2 µM, 3.24 µM and 0.346 µM, respectively.

With `COc1ccc2c(c1)NC1=C(C(=O)OC1)C2c1cc(OC)c2c(c1)OCO2` (stereo not drawn), the GI50 in [1] is less than 0.0178 µM; in assay [2] it was 0.046 µM; in [3] it was less than 0.0192 µM; in assay [4] it was 0.0259 µM; in [5] it was 0.0567 µM; in [7], less than 0.0198 µM. The GI50 in assay [9] is 0.032 µM; in assay [10] it was less than 0.0149 µM. Also, the TGI is more than 83.2 µM in assay [1]; more than 100 µM in assay [2]; more than 100 µM in assay [3]; more than 100 µM in [4]; more than 100 µM in assay [5]; more than 100 µM in assay [6]. In addition, the TGI in assay [7] was more than 100 µM; in assay [9], more than 100 µM; in assay [10], 0.0241 µM.

`Cn1ncnc1[C@H]1c2n[nH]c(=O)c3cc(F)cc(c23)N[C@@H]1c1ccc(F)cc1`: the TGI in assay [1], in [2], in [3], in assay [4], in assay [5] and in [7] was more than 100 µM each time. Moreover, the TGI in assay [8], in [9] and in [10] was more than 100 µM each time. Further, the GI50 is more than 87.1 µM in assay [2]; 25.9 µM in assay [3]; more than 34.5 µM in [4]; 54.3 µM in assay [5]; more than 100 µM in assay [7]; more than 100 µM in [8]. The GI50 in assay [9] and in [10] was more than 100 µM each time.
